In patent US20210045385A1, “PYRIDAZINONE-SUBSTITUTED KETOXIMES AS HERBICIDES” (FMC Corporation, priority 2018, published 2021):

Key:
Type in all cases: in vivo
[1] = system: ragweed (common ragweed, Ambrosia elatior); assay: Test A postemergence, visual plant response rating; conditions: Postemergence, 125 g ai/ha; 0 to 100 scale (0 no effect, 100 complete control)
From the text: (§1) Seeds of plant species selected from barnyardgrass (Echinochloa crus-galli), kochia (Kochia scoparia), ragweed (common ragweed, Ambrosia elatior), Italian ryegrass (Lolium multiflorum), foxtail, giant (giant foxtail, Setaria faberii), foxtail, green (green foxtail, Setaria viridis), and pigweed (Amaranthus retroflexus) were planted into a blend of loam soil and sand and treated preemergence with a directed soil spray using test chemicals formulated in a non-phytotoxic solvent mixture which included a surfactant.
(§2) At the same time, plants selected from these weed species and also wheat (Triticum aestivum), corn (Zea mays), blackgrass (Alopecurus myosuroides), and galium (catchweed bedstraw, Galium aparine) were planted in pots containing the same blend of loam soil and sand and treated with postemergence applications of test chemicals formulated in the same manner. Plants ranged in height from 2 to 10 cm and were in the one- to two-leaf stage for the postemergence treatment. Treated plants and untreated controls were maintained in a greenhouse for approximately 10 days, after which time all treated plants were compared to untreated controls and visually evaluated for injury. Plant response ratings, summarized in Table A, are based on a 0 to 100 scale where 0 is no effect and 100 is complete control. A dash (-) response means no test result.

corn (Zea mays) [2] = assay: Test A postemergence, visual plant response rating; conditions: Postemergence, 125 g ai/ha; 0 to 100 scale (0 no effect, 100 complete control)
From the text: as §1, §2

[3] = system: barnyardgrass (Echinochloa crus-galli); assay: Test A postemergence, visual plant response rating; conditions: Postemergence, 125 g ai/ha; 0 to 100 scale (0 no effect, 100 complete control)
From the text: as §1, §2

[4] = system: Italian ryegrass (Lolium multiflorum); assay: Test A postemergence, visual plant response rating; conditions: Postemergence, 125 g ai/ha; 0 to 100 scale (0 no effect, 100 complete control)
From the text: as §1, §2

[5] = system: galium (catchweed bedstraw, Galium aparine); assay: Test A postemergence, visual plant response rating; conditions: Postemergence, 125 g ai/ha; 0 to 100 scale (0 no effect, 100 complete control)
From the text: as §1, §2

[6] = system: wheat (Triticum aestivum); assay: Test A postemergence, visual plant response rating; conditions: Postemergence, 125 g ai/ha; 0 to 100 scale (0 no effect, 100 complete control)
From the text: as §1, §2

[7] = system: blackgrass (Alopecurus myosuroides); assay: Test A postemergence, visual plant response rating; conditions: Postemergence, 125 g ai/ha; 0 to 100 scale (0 no effect, 100 complete control)
From the text: as §1, §2

kochia (Kochia scoparia) [8] = assay: Test A postemergence, visual plant response rating; conditions: Postemergence, 125 g ai/ha; 0 to 100 scale (0 no effect, 100 complete control)
From the text: as §1, §2

[9] = system: foxtail, giant (giant foxtail, Setaria faberii); assay: Test A postemergence, visual plant response rating; conditions: Postemergence, 125 g ai/ha; 0 to 100 scale (0 no effect, 100 complete control)
From the text: as §1, §2

[10] = system: pigweed (Amaranthus retroflexus); assay: Test A postemergence, visual plant response rating; conditions: Postemergence, 125 g ai/ha; 0 to 100 scale (0 no effect, 100 complete control)
From the text: as §1, §2

[11] = system: ragweed (common ragweed, Ambrosia elatior); assay: Test A preemergence, visual plant response rating; conditions: 125 g ai/ha, preemergence; 0 to 100 scale, 0 no effect, 100 complete control
From the text: as §1, §2

[12] = system: barnyardgrass (Echinochloa crus-galli); assay: Test A preemergence, visual plant response rating; conditions: 125 g ai/ha, preemergence; 0 to 100 scale, 0 no effect, 100 complete control
From the text: as §1, §2

[13] = system: Italian ryegrass (Lolium multiflorum); assay: Test A preemergence, visual plant response rating; conditions: 125 g ai/ha, preemergence; 0 to 100 scale, 0 no effect, 100 complete control
From the text: as §1, §2

kochia (Kochia scoparia) [14] = assay: Test A preemergence, visual plant response rating; conditions: 125 g ai/ha, preemergence; 0 to 100 scale, 0 no effect, 100 complete control
From the text: as §1, §2

[15] = system: foxtail, giant (giant foxtail, Setaria faberii); assay: Test A preemergence, visual plant response rating; conditions: 125 g ai/ha, preemergence; 0 to 100 scale, 0 no effect, 100 complete control
From the text: as §1, §2

[16] = system: pigweed (Amaranthus retroflexus); assay: Test A preemergence, visual plant response rating; conditions: 125 g ai/ha, preemergence; 0 to 100 scale, 0 no effect, 100 complete control
From the text: as §1, §2

corn (Zea mays) [17] = assay: Test C postemergence, visual plant response rating; conditions: Test C, postemergence, 1000 g ai/ha
From the text: as §1, with “(Bassia” for “(Kochia”, “artemisiifolia),” for “elatior),”, “mutiflorum),” for “multiflorum),”, “faberi),” for “faberii),”, “anon-phytotoxic” for “a non-phytotoxic”
as §2, with “with post emergence” for “with postemergence”, “10 d,” for “10 days,”, “Table C,” for “Table A,”, “dash (-)response” for “dash (-) response”

[18] = system: ragweed (common ragweed, Ambrosia artemisiifolia); assay: Test C postemergence, visual plant response rating; conditions: Test C, postemergence, 1000 g ai/ha
From the text: as §1, with “(Bassia” for “(Kochia”, “artemisiifolia),” for “elatior),”, “mutiflorum),” for “multiflorum),”, “faberi),” for “faberii),”, “anon-phytotoxic” for “a non-phytotoxic”
as §2, with “with post emergence” for “with postemergence”, “10 d,” for “10 days,”, “Table C,” for “Table A,”, “dash (-)response” for “dash (-) response”

[19] = system: barnyardgrass (Echinochloa crus-galli); assay: Test C postemergence, visual plant response rating; conditions: Test C, postemergence, 1000 g ai/ha
From the text: as §1, with “(Bassia” for “(Kochia”, “artemisiifolia),” for “elatior),”, “mutiflorum),” for “multiflorum),”, “faberi),” for “faberii),”, “anon-phytotoxic” for “a non-phytotoxic”
as §2, with “with post emergence” for “with postemergence”, “10 d,” for “10 days,”, “Table C,” for “Table A,”, “dash (-)response” for “dash (-) response”

[20] = system: foxtail, giant (giant foxtail, Setaria faberi); assay: Test C postemergence, visual plant response rating; conditions: Test C, postemergence, 1000 g ai/ha
From the text: as §1, with “(Bassia” for “(Kochia”, “artemisiifolia),” for “elatior),”, “mutiflorum),” for “multiflorum),”, “faberi),” for “faberii),”, “anon-phytotoxic” for “a non-phytotoxic”
as §2, with “with post emergence” for “with postemergence”, “10 d,” for “10 days,”, “Table C,” for “Table A,”, “dash (-)response” for “dash (-) response”

kochia (Bassia scoparia) [21] = assay: Test C postemergence, visual plant response rating; conditions: Test C, postemergence, 1000 g ai/ha
From the text: as §1, with “(Bassia” for “(Kochia”, “artemisiifolia),” for “elatior),”, “mutiflorum),” for “multiflorum),”, “faberi),” for “faberii),”, “anon-phytotoxic” for “a non-phytotoxic”
as §2, with “with post emergence” for “with postemergence”, “10 d,” for “10 days,”, “Table C,” for “Table A,”, “dash (-)response” for “dash (-) response”

[22] = system: galium (catchweed bedstraw, Galium aparine); assay: Test C postemergence, visual plant response rating; conditions: Test C, postemergence, 1000 g ai/ha
From the text: as §1, with “(Bassia” for “(Kochia”, “artemisiifolia),” for “elatior),”, “mutiflorum),” for “multiflorum),”, “faberi),” for “faberii),”, “anon-phytotoxic” for “a non-phytotoxic”
as §2, with “with post emergence” for “with postemergence”, “10 d,” for “10 days,”, “Table C,” for “Table A,”, “dash (-)response” for “dash (-) response”

[23] = system: wheat (Triticum aestivum); assay: Test C postemergence, visual plant response rating; conditions: Test C, postemergence, 1000 g ai/ha
From the text: as §1, with “(Bassia” for “(Kochia”, “artemisiifolia),” for “elatior),”, “mutiflorum),” for “multiflorum),”, “faberi),” for “faberii),”, “anon-phytotoxic” for “a non-phytotoxic”
as §2, with “with post emergence” for “with postemergence”, “10 d,” for “10 days,”, “Table C,” for “Table A,”, “dash (-)response” for “dash (-) response”

[24] = system: Italian ryegrass (Lolium mutiflorum); assay: Test C postemergence, visual plant response rating; conditions: Test C, postemergence, 1000 g ai/ha
From the text: as §1, with “(Bassia” for “(Kochia”, “artemisiifolia),” for “elatior),”, “mutiflorum),” for “multiflorum),”, “faberi),” for “faberii),”, “anon-phytotoxic” for “a non-phytotoxic”
as §2, with “with post emergence” for “with postemergence”, “10 d,” for “10 days,”, “Table C,” for “Table A,”, “dash (-)response” for “dash (-) response”

[25] = system: blackgrass (Alopecurus myosuroides); assay: Test C postemergence, visual plant response rating; conditions: Test C, postemergence, 1000 g ai/ha
From the text: as §1, with “(Bassia” for “(Kochia”, “artemisiifolia),” for “elatior),”, “mutiflorum),” for “multiflorum),”, “faberi),” for “faberii),”, “anon-phytotoxic” for “a non-phytotoxic”
as §2, with “with post emergence” for “with postemergence”, “10 d,” for “10 days,”, “Table C,” for “Table A,”, “dash (-)response” for “dash (-) response”

[26] = system: pigweed (Amaranthus retroflexus); assay: Test C postemergence, visual plant response rating; conditions: Test C, postemergence, 1000 g ai/ha
From the text: as §1, with “(Bassia” for “(Kochia”, “artemisiifolia),” for “elatior),”, “mutiflorum),” for “multiflorum),”, “faberi),” for “faberii),”, “anon-phytotoxic” for “a non-phytotoxic”
as §2, with “with post emergence” for “with postemergence”, “10 d,” for “10 days,”, “Table C,” for “Table A,”, “dash (-)response” for “dash (-) response”

[27] = system: ragweed (common ragweed, Ambrosia artemisiifolia); assay: Test C preemergence, visual plant response rating; conditions: 1000 g ai/ha
From the text: as §1, with “(Bassia” for “(Kochia”, “artemisiifolia),” for “elatior),”, “mutiflorum),” for “multiflorum),”, “faberi),” for “faberii),”, “anon-phytotoxic” for “a non-phytotoxic”
as §2, with “with post emergence” for “with postemergence”, “10 d,” for “10 days,”, “Table C,” for “Table A,”, “dash (-)response” for “dash (-) response”

[28] = system: barnyardgrass (Echinochloa crus-galli); assay: Test C preemergence, visual plant response rating; conditions: 1000 g ai/ha
From the text: as §1, with “(Bassia” for “(Kochia”, “artemisiifolia),” for “elatior),”, “mutiflorum),” for “multiflorum),”, “faberi),” for “faberii),”, “anon-phytotoxic” for “a non-phytotoxic”
as §2, with “with post emergence” for “with postemergence”, “10 d,” for “10 days,”, “Table C,” for “Table A,”, “dash (-)response” for “dash (-) response”

[29] = system: foxtail, giant (giant foxtail, Setaria faberi); assay: Test C preemergence, visual plant response rating; conditions: 1000 g ai/ha
From the text: as §1, with “(Bassia” for “(Kochia”, “artemisiifolia),” for “elatior),”, “mutiflorum),” for “multiflorum),”, “faberi),” for “faberii),”, “anon-phytotoxic” for “a non-phytotoxic”
as §2, with “with post emergence” for “with postemergence”, “10 d,” for “10 days,”, “Table C,” for “Table A,”, “dash (-)response” for “dash (-) response”

kochia (Bassia scoparia) [30] = assay: Test C preemergence, visual plant response rating; conditions: 1000 g ai/ha
From the text: as §1, with “(Bassia” for “(Kochia”, “artemisiifolia),” for “elatior),”, “mutiflorum),” for “multiflorum),”, “faberi),” for “faberii),”, “anon-phytotoxic” for “a non-phytotoxic”
as §2, with “with post emergence” for “with postemergence”, “10 d,” for “10 days,”, “Table C,” for “Table A,”, “dash (-)response” for “dash (-) response”

[31] = system: Italian ryegrass (Lolium mutiflorum); assay: Test C preemergence, visual plant response rating; conditions: 1000 g ai/ha
From the text: as §1, with “(Bassia” for “(Kochia”, “artemisiifolia),” for “elatior),”, “mutiflorum),” for “multiflorum),”, “faberi),” for “faberii),”, “anon-phytotoxic” for “a non-phytotoxic”
as §2, with “with post emergence” for “with postemergence”, “10 d,” for “10 days,”, “Table C,” for “Table A,”, “dash (-)response” for “dash (-) response”

[32] = system: pigweed (Amaranthus retroflexus); assay: Test C preemergence, visual plant response rating; conditions: 1000 g ai/ha
From the text: as §1, with “(Bassia” for “(Kochia”, “artemisiifolia),” for “elatior),”, “mutiflorum),” for “multiflorum),”, “faberi),” for “faberii),”, “anon-phytotoxic” for “a non-phytotoxic”
as §2, with “with post emergence” for “with postemergence”, “10 d,” for “10 days,”, “Table C,” for “Table A,”, “dash (-)response” for “dash (-) response”

Row | SMILES | Corn plant response rating (0 to 100 scale) (corn (Zea mays) [17]) | Ragweed plant response rating (0 to 100 scale) [18] | Barnyardgrass plant response rating (0 to 100 scale) [19] | Foxtail, Giant plant response rating (0 to 100 scale) [20] | Kochia plant response rating (0 to 100 scale) (kochia (Bassia scoparia) [21]) | Galium plant response rating (0 to 100 scale) [22] | Wheat plant response rating (0 to 100 scale) [23] | Ryegrass, Italian plant response rating (0 to 100 scale) [24] | Blackgrass plant response rating (0 to 100 scale) [25] | Pigweed plant response rating (0 to 100 scale) [26] | Ragweed plant response rating (0 to 100 scale) [27] | Barnyardgrass plant response rating (0 to 100 scale) [28] | Foxtail, Giant plant response rating (0 to 100 scale) [29] | Kochia plant response rating (0 to 100 scale) (kochia (Bassia scoparia) [30]) | Ryegrass, Italian plant response rating (0 to 100 scale) [31] | Pigweed plant response rating (0 to 100 scale) [32] | also measured
1 | CO/N=C(\c1cc(C(F)(F)F)ccc1Cl)c1c(O)c(C)nn(C)c1=O [Compound 54] |  |  |  |  |  |  |  |  |  |  |  |  |  |  |  |  | Ragweed plant response rating [1]: 60; Corn plant response rating (corn (Zea mays) [2]): 10; Barnyardgrass plant response rating [3]: 30; Ryegrass, Italian plant response rating [4]: 40; Galium plant response rating [5]: 70; Wheat plant response rating [6]: 30; Blackgrass plant response rating [7]: 40; Kochia plant response rating (kochia (Kochia scoparia) [8]): 50; Foxtail, Giant plant response rating [9]: 40; Pigweed plant response rating [10]: 60; Ragweed plant response rating [11]: 70; Barnyardgrass plant response rating [12]: 40; Ryegrass, Italian plant response rating [13]: 70; Kochia plant response rating (kochia (Kochia scoparia) [14]): 0; Foxtail, Giant plant response rating [15]: 40; Pigweed plant response rating [16]: 80
2 | CC(C)O/N=C(/c1c(O)cnn(C)c1=O)c1cccc2ccccc12 [Compound 223] | 0 | 50 | 20 | 30 | 0 | 90 | 0 | 0 | 0 | 40 | 20 | 0 | 0 | 0 | 0 | 100 | 
3 | CCO/N=C(\c1c(O)cnn(C)c1=O)c1cccc2ccccc12 [Compound 224] | 0 | 50 | 10 | 50 | 0 | 90 | 0 | 0 | 10 | 50 | 70 | 10 | 80 | 20 | 0 | 100 | 
